Data as given in US9723840B2 (SYNGENTA PARTICIPATIONS AG, priority 2013, dated 2017).

Legend:
Format in all cases: in vivo
Amaranthus retroflexus [1] = assay: Pre-emergence herbicidal activity, AMARE; design: key: 5=total damage to plant; 0=no damage to plant; conditions: 1000 g/Ha, pre-emergence spray, evaluated after 13 days, scale 0-5
Experimental: (§1) Seeds of a variety of test species were sown in standard soil in pots. After cultivation for one day (pre-emergence) under controlled conditions in a glasshouse (at 24/16° C., day/night; 14 hours light; 65% humidity), the plants were sprayed with an aqueous spray solution derived from the formulation of the technical active ingredient in acetone/water (50:50) solution containing 0.5% Tween 20 (polyoxyethelyene sorbitan monolaurate, CAS RN 9005-64-5). The test plants were then grown in a glasshouse under controlled conditions (at 24/16° C., day/night; 14 hours light; 65% humidity) and watered twice daily. After 13 days, the test was evaluated (5=total damage to plant; 0=no damage to plant).

Abutilon theophrasti [2] = assay: Post-emergence herbicidal activity, ABUTH; design: key: 5=total damage to plant; 0=no damage to plant; conditions: 1000 g/Ha, post-emergence spray (8 days cultivation), evaluated after 13 days, scale 0-5
Experimental: (§2) Seeds of a variety of test species were sown in standard soil in pots. After 8 days cultivation (post-emergence) under controlled conditions in a glasshouse (at 24/16° C., day/night; 14 hours light; 65% humidity), the plants were sprayed with an aqueous spray solution derived from the formulation of the technical active ingredient in acetone/water (50:50) solution containing 0.5% Tween 20 (polyoxyethelyene sorbitan monolaurate, CAS RN 9005-64-5). The test plants were then grown in a glasshouse under controlled conditions (at 24/16° C., day/night; 14 hours light; 65% humidity) and watered twice daily. After 13 days, the test was evaluated (5=total damage to plant; 0=no damage to plant).

Setaria faberi [3] = assay: Pre-emergence herbicidal activity, SETFA; design: key: 5=total damage to plant; 0=no damage to plant; conditions: 1000 g/Ha, pre-emergence spray, evaluated after 13 days, scale 0-5
Experimental: as §1

Amaranthus retroflexus [4] = assay: Post-emergence herbicidal activity, AMARE; design: key: 5=total damage to plant; 0=no damage to plant; conditions: 1000 g/Ha, post-emergence spray (8 days cultivation), evaluated after 13 days, scale 0-5
Experimental: as §2

Alopecurus myosuroides [5] = assay: Pre-emergence herbicidal activity, ALOMY; conditions: 1000 g/Ha, pre-emergence spray, evaluated after 13 days, scale 0-5
Experimental: as §1

Echinochloa crus-galli [6] = assay: Post-emergence herbicidal activity, ECHCG; design: key: 5=total damage to plant; 0=no damage to plant; conditions: 1000 g/Ha, post-emergence spray (8 days cultivation), evaluated after 13 days, scale 0-5
Experimental: as §2

Zea mays [7] = assay: Pre-emergence herbicidal activity, ZEAMX; conditions: 1000 g/Ha, pre-emergence spray, evaluated after 13 days, scale 0-5
Experimental: as §1

Setaria faberi [8] = assay: Post-emergence herbicidal activity, SETFA; design: key: 5=total damage to plant; 0=no damage to plant; conditions: 1000 g/Ha, post-emergence spray (8 days cultivation), evaluated after 13 days, scale 0-5
Experimental: as §2

Echinochloa crus-galli [9] = assay: Pre-emergence herbicidal activity, ECHCG; design: key: 5=total damage to plant; 0=no damage to plant; conditions: 1000 g/Ha, pre-emergence spray, evaluated after 13 days, scale 0-5
Experimental: as §1

Alopecurus myosuroides [10] = assay: Post-emergence herbicidal activity, ALOMY; design: key: 5=total damage to plant; 0=no damage to plant; conditions: 1000 g/Ha, post-emergence spray (8 days cultivation), evaluated after 13 days, scale 0-5
Experimental: as §2

Abutilon theophrasti [11] = assay: Pre-emergence herbicidal activity, ABUTH; design: key: 5=total damage to plant; 0=no damage to plant; conditions: 1000 g/Ha, pre-emergence spray, evaluated after 13 days, scale 0-5
Experimental: as §1

Zea mays [12] = assay: Post-emergence herbicidal activity, ZEAMX; design: key: 5=total damage to plant; 0=no damage to plant; conditions: 1000 g/Ha, post-emergence spray (8 days cultivation), evaluated after 13 days, scale 0-5
Experimental: as §2

SMILES | AMARE damage score, application pre-emergence (Amaranthus retroflexus [1]) | ABUTH damage score, application post-emergence (Abutilon theophrasti [2]) | SETFA damage score, application pre-emergence (Setaria faberi [3]) | AMARE damage score, application post-emergence (Amaranthus retroflexus [4]) | ALOMY damage score, application pre-emergence (Alopecurus myosuroides [5]) | ECHCG damage score, application post-emergence (Echinochloa crus-galli [6]) | ZEAMX damage score, application pre-emergence (Zea mays [7]) | SETFA damage score, application post-emergence (Setaria faberi [8]) | ECHCG damage score, application pre-emergence (Echinochloa crus-galli [9]) | ALOMY damage score, application post-emergence (Alopecurus myosuroides [10]) | ABUTH damage score, application pre-emergence (Abutilon theophrasti [11]) | ZEAMX damage score, application post-emergence (Zea mays [12])
CON1C(=O)N(c2ccc(C(=O)NC(C)(C)C)nn2)C(O)C1C (stereo not drawn) [Example A14] | 5 | 5 | 4 | 5 | 4 | 5 | 2 | 5 | 4 | 5 | 5 | 5
COC1C(O)N(c2cc(C(C)(C)F)c(Cl)nn2)C(=O)N1C (stereo not drawn) [Example A8] | 5 | 5 | 5 | 5 | 4 | 5 | 3 | 5 | 5 | 4 | 5 | 4
